Source: patent publication US20210401931A1, “METHODS AND MATERIALS FOR TREATING CANCER” (Mayo Foundation for Medical Education and Research, priority 2018, published 2021)
“Also recorded” adds a separate entry of the source. Each block holds one molecule with its values, some of them ahead of it.

Assays:
[1] = test system: MAP3K7- and CHD1-KD PC-3 cells; test: MTS viability / IC50 analysis in MAP3K7- and CHD1-KD PC-3 cells; assay type: cell-based, human; settings: MTS assay, log 2(IC50ratio)
Protocol: FIGS. 14A-G. RB functions as a negative regulator of NFκB signaling. (A) PC-3 infected with lentivirus for indicated shRNAs were treated with different chemicals and cells viability was measured by MTS assay. Heat map showing the normalized IC50 ratio (log 2(IC50ratio)). (B-D) PC-3 cells infected with lentivirus expressing indicated shRNAs were harvested for western blots (B), FACS (C), and RT-qPCR (D). All data were shown as mean values±SD (n=3). ns, not significant, * P<0.05, ** P<0.01, *** P<0.001. (E, F) PC-3 cells infected with indicated lentivirus were injected s.c. into NSG mice, and tumors were harvested and photographed at day 21 (E). Data in (F) were shown as means±SD (n=5). ns, not significant, * P<0.05. (G) A model depicting RB functions as a negative regulator of NFκB (p65/p50), providing an explanation of the finding that depletion of RB offsets the death of PTEN-null cells induced by either MAP3K7 or CHD1 deletion.
MAP3K7 or CHD1 was knocked down (KD) in PTEN-null PC-3 cells followed by treatment with an array of small molecule inhibitors for a number of cancer relevant pathways.

p65-IκBα interaction = test: Co-immunoprecipitation of p65 and IκBα in PC-3 cells; assay type: cell-based, human; settings: TNFα 20 ng/mL, 24 hours
RB-p65 interaction = test: Co-immunoprecipitation of RB and p65 in PC-3 cells; assay type: cell-based, human; settings: TNFα 20 ng/mL, 24 hours
Source text: FIGS. 2A-H. RB phosphorylation by CDK4 enhances RB interaction with NFκB protein p65. (A) Western blot analysis of reciprocal co-immunoprecipitation of endogenous RB1 and p65 proteins in PC-3 cells. (B) Schematic diagram depicting a set of p65 recombinant protein constructs. Western blot analysis of RB proteins in PC-3 cells whole cell lysate pulled down by GST or GST-p65 recombinant proteins. Stars indicated expected molecular weight. (C) Western blot analysis of RB proteins in PC-3 whole cell lysate pulled down by GST or GST-p65 recombinant proteins. Cell lysates were treated with or without λ, phosphatase before GST-pull down. (D) Western blot analysis of PC-3 whole cell lysates (WCL) and co-IP samples. Cell lysates were treated with or without λ, phosphatase before IP. (E) Western blot analysis of WCL and co-IP samples in DU145 cells 24 hours after transfected with indicated plasmids. (F) Western blot analysis of WCL and co-IP samples in PC-3 cells. Cells were treated with or without palbociclib (5 μM) for 24 hours before IP. […] Western blot bands of co-IPed RB protein were quantified by ImageJ software and normalized to the quantified value of IP-ed RB in cells without TNFα treatment. […] Western blot bands of p65 protein were quantified by ImageJ software and normalized to the quantified value of p65 protein in cell lysate without immuno-depletion (preimmune sample). […]

[2] = test system: NF-κB site of the PD-L1 promoter; test: EMSA with biotin-labeled PD-L1-prom oligonucleotide and PC-3 nuclear extracts; assay type: cell-based, human; settings: PC-3 nuclear extract
Source text: FIGS. 11A-H. (A) Heatmap showing differentially expressed genes (FDR<0.01) between palbociclib treatment versus DMSO and knockdown RB1 versus control. Gene expression values (FPKM) were Z-score normalized. FPKM, Fragments Per Kilobase of transcript per Million mapped reads. (B) UCSC Genome Browser screenshots of meta-analysis of published RB ChIP high throughput sequencing (ChIP-seq) data showing RB binding to CD274 (PD-L1) gene locus in K562 cells. PD-L1-prom oligonucleotide DNA containing NF-κB binding sequence was shown in the RB binding peak in the PD-L1 gene, the corresponding mutant PD-L1-prom oligonucleotide DNA was shown below. FIG. 11B discloses SEQ ID NOS 279-280, respectively, in order of appearance. (C) ChIP-qPCR analysis of RB binds at the PD-L1 promotor in PC-3 cells. All data were shown as mean values±SD (n=3). *** P<0.001. (D) ChIP-reChIP analysis examining the co-localization of p65 and RB in the PD-L1 promoters. All data were shown as mean values±SD (n=3). ** P<0.01. […]
FIGS. 21A-N. Effect of RB depletion, cell cycle, and RB-N S249/T252 phospho-mimicking peptide on PD-L1 expression in cell lines of various cancer types. […] 48 hours after infection, PD-L1 expression was determined by western blotting (A), RT-qPCR (B), and FACS (C). […] (D) Pd-l1 protein and mRNA levels were determined by western blotting in primary SKO and DKO mouse prostate tumor cell lines. […]

p65 NFκB protein = target: T1, p65 NFκB protein (human, UniProt Q04206 1-551); test: GST pull down from PC-3 whole cell lysate, western blot (FIG. 2H)
T1 construct: which one stood in the assay is told under assay; also called endogenous p65; in vitro transcribed and translated p65 (pCMV4 p65)
Protocol: Cells were lysed with IP buffer (50 mM Tris-HCl, pH 7.4, 150 mM NaCl, 1% Triton X-100, 1% sodium deoxycholate, and 1% protease inhibitor cocktails) on ice for more than 30 minutes. GST fusion proteins were immobilized on glutathione-Sepharose beads (GE Healthcare Lifesciences). After washing with lysis buffer, the beads were incubated with cell lysates overnight at 4° C. overnight. The beads were then washed six times with binding buffer and re-suspended in sample buffer. The bound proteins were subjected to western blotting analysis.

T1 sequence (Q04206 whole entry): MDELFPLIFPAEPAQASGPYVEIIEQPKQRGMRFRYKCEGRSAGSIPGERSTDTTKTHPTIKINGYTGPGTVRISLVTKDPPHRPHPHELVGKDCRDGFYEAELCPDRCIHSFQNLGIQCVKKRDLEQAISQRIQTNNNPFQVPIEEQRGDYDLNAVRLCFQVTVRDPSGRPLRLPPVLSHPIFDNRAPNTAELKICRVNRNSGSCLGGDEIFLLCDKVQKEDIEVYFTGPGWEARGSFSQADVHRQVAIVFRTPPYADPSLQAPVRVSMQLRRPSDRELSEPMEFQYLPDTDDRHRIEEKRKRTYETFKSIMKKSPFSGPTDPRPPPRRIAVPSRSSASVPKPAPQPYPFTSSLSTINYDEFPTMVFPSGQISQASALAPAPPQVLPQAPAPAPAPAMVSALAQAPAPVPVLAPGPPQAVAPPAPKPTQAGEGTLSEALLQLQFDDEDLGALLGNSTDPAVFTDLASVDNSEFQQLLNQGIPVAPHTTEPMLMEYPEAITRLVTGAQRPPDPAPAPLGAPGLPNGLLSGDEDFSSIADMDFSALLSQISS

Molecule: Cc1ccc(NCCCc2ccccc2)c(N)c1 [JSH-23]
- viability of MAP3K7- and CHD1-KD PC-3 cells (normalized IC50 ratio) [1]: further increased viability loss

Molecule: TNFα
- p65-IκBα interaction (p65-IκBα interaction): decreased
- p65-RB interaction in the nucleus (RB-p65 interaction): increased
- DNA-protein complex (DPC) level at PD-L1-Prom probe [2]: largely enhanced; also recorded: further enhanced

- binding result (p65 NFκB protein): no binding
B1: GST-RB-C (other, human, UniProt P06400 793-928, looked up)
chain: PSSPLRIPGGNIYISPLKSPYKISEGLPTPTKMTPRSRILVSIGESFGTSEKFQKINQMVCNSDRVLKRSAEGSNPPKPLKKLRFDIEGSDEADGSKHLPGESKFQQKLAEMTSTRTRMQKQKMNDSMDTSNKEEK
notes: domain: RB-C; not shown: glutathione S-transferase (GST) tag of the fusion
